The source of these data is the NIST ThermoML archive (doi:10.1021/je800789b).

The conditions of this series: Crystal.

Each structure is given as a SMILES string. Numbers after ± are expanded uncertainties.

For the compound `CCCCCCCCCCO` [decan-1-ol], the Normal melting temperature stood at 6.2 ± 0.4 °C.

For the compound `CCCCCCCCCCCCO` [dodecan-1-ol], the Normal melting temperature was determined as 24.1 ± 0.6 °C. On to `O=C(O)C1CCCCC1` [cyclohexanecarboxylic acid], for which the Normal melting temperature came out at 29.8 ± 1.2 °C. To `O=C(O)CC1CCCCC1` [cyclohexylethanoic acid] belongs 29.8 ± 1.2 °C.
